The values below come from patent US8227613B2, “Heteroaryl carboxamide derivatives” (Hoffmann-La Roche Inc., priority 2008, dated 2012).

The target in the assay is T1, human chemokine receptor 2 isoform B (CCR2B) (Homo sapiens, UniProt P41597).
T1 construct: host or cells: CHO-K1 (CHOK1-CCR2B-A5)
T1 sequence (P41597 1-360 isoform P41597-2): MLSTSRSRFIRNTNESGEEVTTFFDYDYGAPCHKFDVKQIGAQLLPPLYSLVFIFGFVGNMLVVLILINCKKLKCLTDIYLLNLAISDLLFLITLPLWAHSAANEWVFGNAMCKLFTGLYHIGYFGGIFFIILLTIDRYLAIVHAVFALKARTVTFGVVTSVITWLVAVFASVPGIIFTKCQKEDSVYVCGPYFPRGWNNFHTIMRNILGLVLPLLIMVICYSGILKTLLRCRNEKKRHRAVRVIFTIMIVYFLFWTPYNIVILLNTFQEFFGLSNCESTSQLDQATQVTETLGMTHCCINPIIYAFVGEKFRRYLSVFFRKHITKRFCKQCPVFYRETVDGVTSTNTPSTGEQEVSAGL
Kind of assay: Calcium mobilization assay (FLIPR, MCP-1 stimulated CHOK1-CCR2B-A5 cells). The format is cell-based. The conditions noted are these: 20 nM MCP-1, antagonist activity, read-out: IC50 (inhibitor concentration required for 50% inhibition of specific calcium increases). The procedure: Calcium Mobilization Assay
CHOK1-CCR2B-A5 cells (from Euroscreen) stably overexpressing the human chemokine receptor 2 isoform B were cultured in Nutrient Hams F12 medium supplemented with 5% FBS, 100 U/ml penicillin, 100 μg/ml streptomycin, 400 μg/ml G418 and 5 μg/ml puromycin.
For the assay cells were grown overnight in 384-well black clear flat bottom polystyrene plates (Costar) at 37° C. at 5% CO2. After washing with DMEM, 20 mM Hepes, 2.5 mM probenecid, 0.1% BSA (DMEM assay buffer) cells were loaded with 4 μM Fluo-4 in the same DMEM assay buffer for 2 hours at 30° C. Excess dye was removed and cells were washed with DMEM assay buffer. 384-well compound plates were prepared with DMEM assay buffer/0.5% DMSO with or without various concentrations of test compounds. Usually compounds were tested for agonist and antagonist activity.
Test compounds were added to the assay plate and agonist activity was monitored as fluorescence for 80 seconds with a FLIPR (488 nm excitation; 510-570 nm emission; Molecular Devices). After 20-30 min. of incubation at 30° C., 20 nM MCP-1 (R&D; Roche) was added and fluorescence was monitored again for 80 seconds. Increases in intracellular calcium are reported as maximum fluorescence after agonist exposure minus basal fluorescence before exposure. Antagonist activity is indicated as inhibitor concentration required for 50% inhibition of specific calcium increases.
`Cc1cc(-c2cc(C(F)(F)F)ccc2F)cnc1C(=O)N1CCC(N2CCCC2)CC1` [Example 31, [5-(2-Fluoro-5-trifluoromethyl-phenyl)-3-methyl-pyridin-2-yl]-(4-pyrrolidin-1-yl-piperidin-1-yl)-methanone]: the IC50 is 25 nM. Under `Cc1cc(-c2cccc(C(F)(F)F)c2)c(-c2cnn[nH]2)nc1C(=O)N1CCC(N2CCCC2)CC1` [Example 32, [3-Methyl-6-(1H-[1,2,3]triazol-4-yl)-5-(3-trifluoromethyl-phenyl)-pyridin-2-yl]-(4-pyrrolidin-1-yl-piperidin-1-yl)-methanone] stands 23 nM.

Consider `COc1ccc(C(F)(F)F)cc1-c1cnc(C(=O)N2CCC(N3CCCC3)CC2)c(C)c1` [Example 33, [5-(2-Methoxy-5-trifluoromethyl-phenyl)-3-methyl-pyridin-2-yl]-(4-pyrrolidin-1-yl-piperidin-1-yl)-methanone], for which the IC50 was determined as 16 nM. In the case of `Cc1cc(-c2ccc(F)c(C(F)(F)F)c2)cnc1C(=O)N1CCC(N2CCCC2)CC1` [Example 34, [5-(4-Fluoro-3-trifluoromethyl-phenyl)-3-methyl-pyridin-2-yl]-(4-pyrrolidin-1-yl-piperidin-1-yl)-methanone] it was 59 nM; in that of `COc1ccc(-c2cnc(C(=O)N3CCC(N4CCCC4)CC3)c(C)c2)cc1C(F)(F)F` [Example 35, [5-(4-Methoxy-3-trifluoromethyl-phenyl)-3-methyl-pyridin-2-yl]-(4-pyrrolidin-1-yl-piperidin-1-yl)-methanone], 560 nM; in that of `Cc1cc(-c2cccc(C(F)(F)F)c2F)cnc1C(=O)N1CCC(N2CCCC2)CC1` [Example 36, [5-(2-Fluoro-3-trifluoromethyl-phenyl)-3-methyl-pyridin-2-yl]-(4-pyrrolidin-1-yl-piperidin-1-yl)-methanone], 180 nM. Under `Cc1cc(-c2cc(F)cc(C(F)(F)F)c2)cnc1C(=O)N1CCC(N2CCCC2)CC1` [Example 37, [5-(3-Fluoro-5-trifluoromethyl-phenyl)-3-methyl-pyridin-2-yl]-(4-pyrrolidin-1-yl-piperidin-1-yl)-methanone] stands 36 nM. Consider `Cc1cc(-c2cccc(C(F)(F)F)c2)c(-c2cnc(N)nc2)nc1C(=O)N1CCC(N2CCCC2)CC1` [Example 39, [6-(2-Amino-pyrimidin-5-yl)-3-methyl-5-(3-trifluoromethyl-phenyl)-pyridin-2-yl]-(4-pyrrolidin-1-yl-piperidin-1-yl)-methanone], for which the IC50 was found to be 5.8 nM. In the case of `Cc1cc(-c2cccc(C(F)(F)F)c2)c(-c2ccc(N)nc2)nc1C(=O)N1CCC(N2CCCC2)CC1` [Example 40, [6′-Amino-5-methyl-3-(3-trifluoromethyl-phenyl)-[2,3′]bipyridinyl-6-yl]-(4-pyrrolidin-1-yl-piperidin-1-yl)-methanone] it was 3.9 nM; in that of `Cc1cc(-c2cccc(C(F)(F)F)c2)c(-c2ccc(O)nc2)nc1C(=O)N1CCC(N2CCCC2)CC1` [Example 41, [6′-Hydroxy-5-methyl-3-(3-trifluoromethyl-phenyl)-[2,3′]bipyridinyl-6-yl]-(4-pyrrolidin-1-yl-piperidin-1-yl)-methanone], 16 nM.

Regarding `Cc1cc(-c2cccc(C(F)(F)F)c2)c(C#N)nc1C(=O)N1CCC(N2CCCC2)CC1` [Example 42, 5-Methyl-6-(4-pyrrolidin-1-yl-piperidine-1-carbonyl)-3-(3-trifluoromethyl-phenyl)-pyridine-2-carbonitrile], the IC50 is 26 nM. Under `Cc1cc(-c2cccc(C(F)(F)F)c2)c(C(N)=O)nc1C(=O)N1CCC(N2CCCC2)CC1` [Example 43, 5-Methyl-6-(4-pyrrolidin-1-yl-piperidine-1-carbonyl)-3-(3-trifluoromethyl-phenyl)-pyridine-2-carboxylic acid amide] stands 25 nM; under `COc1ncc(-c2nc(C(=O)N3CCC(N4CCCC4)CC3)c(C)cc2-c2cccc(C(F)(F)F)c2)cn1` [Example 44, [6-(2-Methoxy-pyrimidin-5-yl)-3-methyl-5-(3-trifluoromethyl-phenyl)-pyridin-2-yl]-(4-pyrrolidin-1-yl-piperidin-1-yl)-methanone], 12 nM; under `COC(=O)c1nc(C(=O)N2CCC(N3CCCC3)CC2)c(C)cc1-c1cccc(C(F)(F)F)c1` [Example 45, 5-Methyl-6-(4-pyrrolidin-1-yl-piperidine-1-carbonyl)-3-(3-trifluoromethyl-phenyl)-pyridine-2-carboxylic acid methyl ester], 7.5 nM. In the case of `Cc1cc(-c2cccc(C(F)(F)F)c2)c(CO)nc1C(=O)N1CCC(N2CCCC2)CC1` [Example 46, [6-Hydroxymethyl-3-methyl-5-(3-trifluoromethyl-phenyl)-pyridin-2-yl]-(4-pyrrolidin-1-yl-piperidin-1-yl)-methanone] it was 12 nM; in that of `Cc1cc(-c2cccc(C(F)(F)F)c2)c(C(=O)O)nc1C(=O)N1CCC(N2CCCC2)CC1` [Example 47, 5-Methyl-6-(4-pyrrolidin-1-yl-piperidine-1-carbonyl)-3-(3-trifluoromethyl-phenyl)-pyridine-2-carboxylic acid], 310 nM; in that of `Cc1cc(-c2cccc(C(F)(F)F)c2)c(-c2cn[nH]c2)nc1C(=O)N1CCC(N2CCCC2)CC1` [Example 48, [3-Methyl-6-(1H-pyrazol-4-yl)-5-(3-trifluoromethyl-phenyl)-pyridin-2-yl]-(4-pyrrolidin-1-yl-piperidin-1-yl)-methanone], 12 nM. For `Cc1cc(-c2cccc(C(F)(F)F)c2)c(-c2cc[nH]n2)nc1C(=O)N1CCC(N2CCCC2)CC1` [Example 49, [3-Methyl-6-(1H-pyrazol-3-yl)-5-(3-trifluoromethyl-phenyl)-pyridin-2-yl]-(4-pyrrolidin-1-yl-piperidin-1-yl)-methanone], the IC50 was 10 nM. In the case of `Cc1cc(-c2cccc(C(F)(F)F)c2)c(-c2cnn(C)c2)nc1C(=O)N1CCC(N2CCCC2)CC1` [Example 50, [3-Methyl-6-(1-methyl-1H-pyrazol-4-yl)-5-(3-trifluoromethyl-phenyl)-pyridin-2-yl]-(4-pyrrolidin-1-yl-piperidin-1-yl)-methanone] it was 18 nM; in that of `Cc1cc(-c2cccc(C(F)(F)F)c2)c(-c2cnccn2)nc1C(=O)N1CCC(N2CCCC2)CC1` [Example 51, [3-Methyl-6-pyrazin-2-yl-5-(3-trifluoromethyl-phenyl)-pyridin-2-yl]-(4-pyrrolidin-1-yl-piperidin-1-yl)-methanone], 5.5 nM; in that of `Cc1cc(-c2cccc(C(F)(F)F)c2)c(-c2ccnn2C)nc1C(=O)N1CCC(N2CCCC2)CC1` [Example 53, [3-Methyl-6-(2-methyl-2H-pyrazol-3-yl)-5-(3-trifluoromethyl-phenyl)-pyridin-2-yl]-(4-pyrrolidin-1-yl-piperidin-1-yl)-methanone], 15 nM. Under `Cc1cc(-c2cccc(C(F)(F)F)c2)c(-c2cnc(O)nc2O)nc1C(=O)N1CCC(N2CCCC2)CC1` [Example 54, [6-(2,4-Dihydroxy-pyrimidin-5-yl)-3-methyl-5-(3-trifluoromethyl-phenyl)-pyridin-2-yl]-(4-pyrrolidin-1-yl-piperidin-1-yl)-methanone] stands 120 nM; under `Cc1cc(-c2cccc(C(F)(F)F)c2)c(C(=O)NCCO)nc1C(=O)N1CCC(N2CCCC2)CC1` [Example 55, 5-Methyl-6-(4-pyrrolidin-1-yl-piperidine-1-carbonyl)-3-(3-trifluoromethyl-phenyl)-pyridine-2-carboxylic acid (2-hydroxy-ethyl)-amide], 130 nM.

`Cc1cc(-c2cccc(C(F)(F)F)c2)c(C(=O)Nc2cccnc2)nc1C(=O)N1CCC(N2CCCC2)CC1` [Example 56, 5-Methyl-6-(4-pyrrolidin-1-yl-piperidine-1-carbonyl)-3-(3-trifluoromethyl-phenyl)-pyridine-2-carboxylic acid pyridin-3-ylamide]: the IC50 worked out at 13 nM.

Regarding `Cc1cc(-c2cccc(C(F)(F)F)c2)c(C(=O)NC2CCN(C(=O)OC(C)(C)C)CC2)nc1C(=O)N1CCC(N2CCCC2)CC1` [Example 57, 4-{[5-Methyl-6-(4-pyrrolidin-1-yl-piperidine-1-carbonyl)-3-(3-trifluoromethyl-phenyl)-pyridine-2-carbonyl]-amino}-piperidine-1-carboxylic acid tert-butyl ester], the IC50 stood at 210 nM. Under `CNC(=O)c1nc(C(=O)N2CCC(N3CCCC3)CC2)c(C)cc1-c1cccc(C(F)(F)F)c1` [Example 58, 5-Methyl-6-(4-pyrrolidin-1-yl-piperidine-1-carbonyl)-3-(3-trifluoromethyl-phenyl)-pyridine-2-carboxylic acid methylamide] stands 190 nM.
